Measurements reported in US6500858B2, “Taxoid anti-tumor agents and pharmaceutical compositions thereof” (The Research Foundation of the state University of New York, priority 1994, dated 2002).
“Also recorded” adds a separate entry of the source. Read-outs that look alike come from different tables or passages of the source.

Assays:
[1] = system: WiDr; assay: growth inhibition by cell counts, 72 h; assay type: cell-based, human; conditions: Homo sapiens, WiDr, read-out: WiDr IC50
Method: (§1) Cells were plated in 6-well flat bottom plates (Falcon, Lincoln Park, N.J.) at a concentration of 10^5 cells ml in complete medium. After 24 h, the medium was replaced with media containing the test substances. Control cells were treated with vehicle alone. Cells were then washed twice and cultures maintained up to 72 h in complete medium (without removing the test substances). At this time point quadruplicate counts of triplicate cultures were performed. To calculate the growth inhibition effect, three independent experiments were performed for each test substance/cell line. The IC50 values were then calculated by fitting the concentration-effect curve data obtained in the three experiments with the sigmoid-Emax model using nonlinear regression, weighted by the reciprocal of the square of the predicted effect according to the method of Motulsky, H. J. and Ransnas, L. A., FASEB J. 1:365-74 (1987).

[2] = system: NCI-H23; assay: growth inhibition by cell counts, 72 h; assay type: cell-based, human; conditions: Homo sapiens, NCI-H23, 72 h; read-out: NCI-H23 IC50
Method: as §1

[3] = system: DU-145; assay: growth inhibition by cell counts, 72 h; assay type: cell-based, human; conditions: Homo sapiens, DU-145, 72 h; read-out: DU-145 IC50
Method: as §1

[4] = system: MCF-7 wt; assay: growth inhibition by cell counts, 72 h; assay type: cell-based, human; conditions: Homo sapiens, MCF7, 72 h; read-out: MCF-7 wt IC50
Method: as §1

[5] = system: A2780; assay: growth inhibition by cell counts, 72 h; assay type: cell-based, human; conditions: Homo sapiens, A2780, 72 h; read-out: A2780 IC50
Method: as §1

[6] = system: MCF-7 ADRr; assay: growth inhibition by cell counts, 72 h; assay type: cell-based, human; conditions: Homo sapiens, MCF7, 72 h; read-out: MCF-7 ADRr IC50
Method: as §1

[7] = system: MCF7 (mammary carcinoma); assay: tumor cell growth inhibition (SRB, 72 h drug exposure); assay type: cell-based, human; conditions: for IC50: 72 h drug exposure
Method: (§2) Lower numbers indicate higher potency. […] The data represent the mean values of at least three separate experiments. Lower numbers indicate greater activity.
(§3) Assessment of cell growth inhibition was determined according to the methods of Skehan et al., J. Nat. Cancer Inst. […] Briefly, cells were plated between 400 and 1200 cells/well in 96 well plates and incubated at 37° C. for 15-18 h prior to drug addition to allow attachment of cells. […] After a 72 h incubation, […] of ice-cold 50% TCA was added to each well and incubated for 1 h at 4° C. Plates were then washed 5 times with tap water to remove TCA, low-molecular-weight metabolites and serum proteins. Sulforhodamine B (SRB) (0.4%, […]) was added to each well. Following a 5 min incubation at room temperature, plates were rinsed 5 times with 0.1% acetic acid and air dried. […] Optical density was measured at 570 nm.

[8] = system: A549 (non-small cell lung carcinoma); assay: as above; assay type: cell-based, human; conditions: for IC50: 72 h drug exposure, read-out: A549 (NSCLC) IC50
Method: as §2, §3

[9] = system: A121 (ovarian carcinoma); assay: as above; assay type: cell-based, human; conditions: for IC50: 72 h drug exposure
Method: as §2, §3

[10] = system: HT-29 (colon carcinoma); assay: as above; assay type: cell-based, human; conditions: for IC50: 72 h drug exposure
Method: as §2, §3

[11] = system: LCC6-MDR: MDR1 transduced line; assay: cytotoxicity assay of second generation taxoids; assay type: cell-based, human; conditions: for activity against drug-resistant vs drug-sensitive cell lines, in words: LCC6 and MCF7 pairs
[12] = system: LCC6-WT: human breast carcinoma; assay: cytotoxicity assay of second generation taxoids; assay type: cell-based; conditions: 72 h drug exposure, read-out: LCC6-WT IC50
Method: A cytotoxicity assay of these new second generation taxoids was performed on human breast cancer cell lines, LCC6-WT and LCC-MDR, and selected taxoids were also assayed for their potency against MCF7 and MCF7-R (Skehan, P., et al., J. Nat. Cancer Inst. 1990, 82, 1107-1112).

[13] = system: MCF7-R (mammary carcinoma cells 180-fold resistant to adriamycin); assay: tumor cell growth inhibition (SRB, 72 h drug exposure); assay type: cell-based, human; conditions: for IC50: 72 h drug exposure
Method: as §2, §3

[14] = Table 1, read-out: MCF7 (breast) IC50

## CC(=O)O[C@@]12CO[C@@H]1C[C@H](O)[C@@]1(C)C(=O)[C@H](O)C3=C(C)[C@@H](OC(=O)[C@H](O)[C@@H](NC(=O)OC(C)(C)C)c4ccccc4)C[C@@](O)([C@@H](OC(=O)c4ccccc4)[C@H]21)C3(C)C [Docetaxel, docetaxel, reference compound]
[1]
  IC50: 2.3 nM
[2]
  IC50: 3 nM
[3]
  IC50: 0.8 nM
[4]
  IC50: 3.6 nM
[5]
  IC50: 4.95 nM
[6]
  IC50: 970 nM
[7]; Homo sapiens, MCF7, Table 1, read-out: MCF7 (breast) IC50
  IC50: 1 nM
[7]; Homo sapiens, MCF7, Table 3, read-out: MCF7 IC50
  IC50: 1 nM
[8]; Homo sapiens, A549
  IC50: 1 nM
[9]; Homo sapiens, A121
  IC50: 1.2 nM
[10]; Homo sapiens, HT-29
  IC50: 1.2 nM
[11]; Homo sapiens, LCC6MDR, 72 h drug exposure, read-out: LCC6-MDR IC50
  IC50: 120 nM
[12]; Homo sapiens
  IC50: 1 nM

## CCC(=O)OC1C(=O)C2(C)C(O)CC3OCC3(OC(C)=O)C2C(OC(=O)c2cccc(N=[N+]=[N-])c2)C2(O)CC(OC(=O)C(O)C(C=C(C)C)NC(=O)OC(C)(C)C)C(C)=C1C2(C)C (stereo not shown) [Taxoid 7o, 3′-Dephenyl-3′-(2-methylprop-1-enyl)-2-debenzoyl-2-(3-azidobenzoyl)-10-propanoyldocetaxel]
[7]; Table 3, read-out: MCF7 IC50
  IC50: 0.9 nM
[13]; Table 3
  IC50: 1.1 nM
[11]
  activity against drug-resistant vs drug-sensitive cell lines, in words: virtually no difference in activity
[12]
  IC50: 0.9 nM

## CC(=O)O[C@@]12CO[C@@H]1C[C@H](O)[C@@]1(C)C(=O)[C@H](O)C3=C(C)[C@@H](OC(=O)[C@H](O)[C@H](CC(C)(C)C)NC(=O)OC(C)(C)C)C[C@@](O)([C@@H](OC(=O)c4ccccc4)[C@H]21)C3(C)C [3′-dephenyl-3′-neopentyldocetaxel]
[7]; MCF7 human breast
  cytotoxicity in words: virtually not cytotoxic
[8]; A549 human non-small cell lung
  cytotoxicity in words: virtually not cytotoxic
[9]; A121 human ovarian
  cytotoxicity in words: virtually not cytotoxic
[10]; HT-29 human colon
  cytotoxicity in words: virtually not cytotoxic

## C=CCCC(NC(=O)OC(C)(C)C)C(O)C(=O)OC1CC2(O)C(OC(=O)c3cccc(OC)c3)C3C4(OC(C)=O)COC4CC(O)C3(C)C(=O)C(OC(=O)CC)C(=C1C)C2(C)C (stereo not shown) [Taxoid 7h, 3′-Dephenyl-3′-(3-butenyl)-2-debenzoyl-2-(3-methoxybenzoyl)-10-propanoyldocetaxel]
[7]; Table 3, read-out: MCF7 IC50
  IC50: 2 nM
[13]; Table 3
  IC50: 7.7 nM
[12]
  IC50: 0.9 nM

## CCC(=O)OC1C(=O)C2(C)C(O)CC3OCC3(OC(C)=O)C2C(OC(=O)c2cccc(OC)c2)C2(O)CC(OC(=O)C(O)C(C=C(C)C)NC(=O)OC(C)(C)C)C(C)=C1C2(C)C (stereo not shown) [Taxoid 7f, 3′-Dephenyl-3′-(2-methylprop-1-enyl)-2-debenzoyl-2-(3-methoxybenzoyl)-10-propanoyldocetaxel]
[7]; Table 3, read-out: MCF7 IC50
  IC50: 0.36 nM
[13]; Table 3
  IC50: 0.33 nM
[11]
  activity against drug-resistant vs drug-sensitive cell lines, in words: slightly better activity against the drug-resistant cell lines; also recorded: virtually no difference in activity
[12]
  IC50: 1 nM

## COc1cccc(C(=O)OC2C3C4(OC(C)=O)COC4CC(O)C3(C)C(=O)C(OC(C)=O)C3=C(C)C(OC(=O)C(O)C(C=C(C)C)NC(=O)OC(C)(C)C)CC2(O)C3(C)C)c1 (stereo not shown) [Taxoid 7l, 3′-Dephenyl-3′-(2-methylprop-1-enyl)-2-debenzoyl-2-(3-methoxybenzoyl)-10-acetyldocetaxel]
[7]; Table 3, read-out: MCF7 IC50
  IC50: 0.8 nM
[13]; Table 3
  IC50: 2.3 nM
[12]
  IC50: 0.6 nM

## CCC(=O)OC1C(=O)C2(C)C(O)CC3OCC3(OC(C)=O)C2C(OC(=O)c2cccc(N=[N+]=[N-])c2)C2(O)CC(OC(=O)C(O)C(CC(C)C)NC(=O)OC(C)(C)C)C(C)=C1C2(C)C (stereo not shown) [Taxoid 7n, 3′-Dephenyl-3′-(2-methylpropyl)-2-debenzoyl-2-(3-azidobenzoyl)-10-propanoyldocetaxel]
[7]; Table 3, read-out: MCF7 IC50
  IC50: 1 nM
[13]; Table 3
  IC50: 2.1 nM
[12]
  IC50: 1.1 nM

## CC=CC(NC(=O)OC(C)(C)C)C(O)C(=O)OC1CC2(O)C(OC(=O)c3ccccc3)C3C4(OC(C)=O)COC4CC(O)C3(C)C(=O)C(OC(C)=O)C(=C1C)C2(C)C (stereo not shown) [Taxoid Ia, 3′-dephenyl-3′-(1-propenyl)-10-acetyldocetaxel]
[7]; [14]
  IC50: 0.51 nM
[8]
  IC50: 0.54 nM
[13]; Table 1
  IC50: 14 nM
[13]; MCF7-R
  times better activity than docetaxel: 17 times
  times better activity than paclitaxel: 21 times
[9]
  IC50: 0.9 nM
[10]
  IC50: 0.76 nM

## CC(=O)OC1C(=O)C2(C)C(O)CC3OCC3(OC(C)=O)C2C(OC(=O)c2ccccc2)C2(O)CC(OC(=O)C(O)C(NC(=O)OC(C)(C)C)C(F)(F)F)C(C)=C1C2(C)C (stereo not shown) [Taxoid Ig, 3′-Dephenyl-3 ′-trifluoromethyl-10-acetyldocetaxel]
[7]; [14]
  IC50: 0.25 nM
[8]
  IC50: 0.25 nM
[13]; Table 1
  IC50: 17 nM
[9]
  IC50: 0.37 nM
[10]
  IC50: 0.4 nM
